# Data published in patent US20230011869A1 (Hoffmann-La Roche Inc., priority 2018, published 2023).
# Where a name gives a salt, the structure may show the parent alone.
# Test system: Acinetobacter baumannii ATCC17961
# Experiment: Antimicrobial susceptibility testing: 90% growth inhibitory concentration (IC90) determination, Iso-Sensitest broth
# Type: cell-based
# Details: Acinetobacter baumannii, ATCC17961, 16 h, 90% growth inhibitory concentration, Acinetobacter baumannii ATCC17961, Iso-Sensitest broth, OD 600 nm over 16 h; read-out: ATCC17961 IC90
# Procedure, shortened: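 Growth followed by optical density at 600 nm every 20 minutes for 16 h at 35±2° C, with inhibition assessed in log phase to give IC90. Compounds tested as twofold dilution series (e.g. 50 to 0.097 μM final) against 5×10^(5) CFU/ml in Iso-Sensitest medium.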
row,SMILES,IC90 [µM]
1,"Cc1cc(Nc2nccn3c(-c4ccc(OC(F)F)cc4)cnc23)ccc1C(=O)N1CCN(C(=O)OC(C)(C)C)CC1 [Example 556, tert-butyl 4-(4-((3-(4-(difluoromethoxy)phenyl)imidazo [1,2-a]pyrazin-8-yl)amino)-2-methylbenzoyl)piperazine-1-carboxylate]",0.418
2,"COc1ccc(-c2cnc3c(Nc4cc(C)c(C(=O)N5CCN(C(=O)[C@@H]6C[C@@H](O)CN6)CC5)c(Cl)c4)nccn23)c(F)c1F [Example 575, (4-(2-chloro-4-((3-(2,3-difluoro-4-methoxyphenyl)imidazo[1,2-a]pyrazin-8-yl)amino)-6-methylbenzoyl)piperazin-1-yl)((2S,4R)-4-hydroxypyrrolidin-2-yl)methanone dihydrochloride]",0.583
3,"COc1ccc(-c2cnc3c(Nc4ccc(C(=O)N5CCN(C(=O)[C@@H]6C[C@@H](O)CN6)CC5)c(C)c4F)nccn23)c(F)c1F [Example 576, (4-(4-((3-(2,3-difluoro-4-methoxyphenyl)imidazo[1,2-a]pyrazin-8-yl)amino)-3-fluoro-2-methylbenzoyl)piperazin-1-yl)((2S,4R)-4-hydroxypyrrolidin-2-yl)methanone dihydrochloride]",0.236
4,"CCc1cc(Nc2nccn3c(-c4ccc(OC)c(F)c4F)cnc23)ccc1C(=O)N1CCN(CCO[C@@H]2O[C@H](CO)[C@H](O)[C@H](O)[C@H]2O)CC1 [Example 580, (4-((3-(2,3-difluoro-4-methoxyphenyl)imidazo[1,2-a]pyrazin-8-yl)amino)-2-ethylphenyl)(4-(2-(((2R,3R,4S,5R,6R)-3,4,5-trihydroxy-6-(hydroxymethyl)tetrahydro-2H-pyran-2-yl)oxy)ethyl)piperazin-1-yl)methanone]",0.601
5,"CCc1cc(Nc2nccn3c(-c4ccc(OC(F)F)c(F)c4F)cnc23)ccc1C(=O)N1CCC(C(=O)N2C[C@H]3C[C@@H](C2)N3)CC1 [Example 589, (4-(3,6-diazabicyclo[3.1.1]heptane-3-carbonyl)piperidin-1-yl)(4-((3-(4-(difluoromethoxy)-2,3-difluorophenyl)imidazo[1,2-a]pyrazin-8-yl)amino)-2-ethylphenyl)methanone formate]",0.059

# More lines, now with the values ahead:
row,IC90 [µM],SMILES
1,0.704,"COc1ccc(-c2cnc3c(Nc4ccc(C(=O)N5CCN(C(=O)[C@H](CCCNC(=N)N)NC(=O)[C@@H](N)CCC(=O)O)CC5)c(C)c4)nccn23)c(F)c1F [Example 555, (S)-4-amino-5-(((S)-1-(4-(4-((3-(2,3-difluoro-4-methoxyphenyl)imidazo[1,2-a]pyrazin-8-yl)amino)-2-methylbenzoyl)piperazin-1-yl)-5-guanidino-1-oxopentan-2-yl)amino)-5-oxopentanoic acid trihydrochloride]"
2,0.205,"COc1ccc(-c2cnc3c(Nc4ccc(C(=O)N5CCC(C(=O)N6C[C@@H](O)[C@@H](O)[C@@H](O)C6)CC5)c(C)c4)nccn23)c(F)c1F [Example 569, (1-(4-((3-(2,3-difluoro-4-methoxyphenyl)imidazo[1,2-a]pyrazin-8-yl)amino)-2-methylbenzoyl)piperidin-4-yl)((3R,4s,5S)-3,4,5-trihydroxypiperidin-1-yl)methanone]"
3,0.245,"COc1ccc(-c2cnc3c(Nc4ccc(C(=O)N5CCC(C(=O)NCC(O)Cn6cccn6)CC5)c(C)c4)nccn23)c(F)c1F (stereo not shown) [Example 570, 1-(4-((3-(2,3-difluoro-4-methoxyphenyl)imidazo[1,2-a]pyrazin-8-yl)amino)-2-methylbenzoyl)-N-(2-hydroxy-3-(1H-pyrazol-1-yl)propyl)piperidine-4-carboxamide]"
4,0.265,"COc1ccc(-c2cnc3c(Nc4ccc(C(=O)N5CCC(C(=O)NCC(O)CN6CCOC(C)C6)CC5)c(C)c4)nccn23)c(F)c1F (stereo not shown) [Example 571, 1-(4-((3-(2,3-difluoro-4-methoxyphenyl)imidazo[1,2-a]pyrazin-8-yl)amino)-2-methylbenzoyl)-N-(2-hydroxy-3-(2-methylmorpholino)propyl) piperidine-4-carboxamide]"
5,0.216,"COc1ccc(-c2cnc3c(Nc4ccc(C(=O)N5CCC(C(=O)NCC(O)CN6CCOCC6)CC5)c(C)c4)nccn23)c(F)c1F (stereo not shown) [Example 572, 1-(4-((3-(2,3-difluoro-4-methoxyphenyl)imidazo[1,2-a]pyrazin-8-yl)amino)-2-methylbenzoyl)-N-(2-hydroxy-3-morpholinopropyl)piperidine-4-carboxamide]"
6,0.31,"COc1ccc(-c2cnc3c(Nc4ccc(C(=O)N5CCN(C(=O)[C@@H]6CC(F)(F)CN6)CC5)c(C)c4)nccn23)c(F)c1F [Example 573, (S)-(4-(4-((3-(2,3-difluoro-4-methoxyphenyl)imidazo[1,2-a]pyrazin-8-yl)amino)-2-methylbenzoyl)piperazin-1-yl)(4,4-difluoropyrrolidin-2-yl)methanone hydrochloride]"
7,0.265,"COc1ccc(-c2cnc3c(Nc4ccc(C(=O)N5CCN(C(=O)[C@@H]6C[C@@H](C#N)CN6)CC5)c(C)c4)nccn23)c(F)c1F [Example 574, (3R,5S)-5-[4-[4-[[3-(2,3-difluoro-4-methoxyphenyl)imidazo[1,2-a]pyrazin-8-yl]amino]-2-methylbenzoyl]piperazine-1-carbonyl]pyrrolidine-3-carbonitrile;hydrochloride]"
8,0.258,"COc1ccc(-c2cnc3c(Nc4ccc(C(=O)N5CCN(S(=O)(=O)[C@@H]6CCNC6)CC5)c(C)c4)nccn23)c(F)c1F [Example 579, (R)-(4-((3-(2,3-difluoro-4-methoxyphenyl)imidazo[1,2-a]pyrazin-8-yl)amino)-2-methylphenyl)(4-(pyrrolidin-3-ylsulfonyl)piperazin-1-yl)methanone]"
9,0.464,"COc1ccc(-c2cnc3c(Nc4ccc(C(=O)N5C[C@H]6CNC[C@@H](C5)O6)c(C)c4)nccn23)c(F)c1F [Example 581, ((1R,5S)-9-oxa-3,7-diazabicyclo[3.3.1]nonan-3 - yl)(4-((3-(2,3-difluoro-4-methoxyphenyl)imidazo[1,2-a]pyrazin-8-yl)amino)-2-methylphenyl)methanone dihydrochloride]"
10,0.273,"COc1ccc(-c2cnc3c(Nc4ccc(C(=O)N5CCN(C(=O)[C@@H]6C[C@@](O)(C(F)(F)F)CN6)CC5)c(C)c4)nccn23)c(F)c1F [Example 582, (4-(4-((3-(2,3-difluoro-4-methoxyphenyl)imidazo[1,2-a]pyrazin-8-yl)amino)-2-methylbenzoyl)piperazin-1-yl)((2S,4S)-4-hydroxy-4-(trifluoromethyl)pyrrolidin-2-yl)methanone hydrochloride]"
11,0.46,"COc1ccc(-c2cnc3c(Nc4ccc(C(=O)N5CCN(C(=O)[C@@H]6C[C@@](OC)(C(F)(F)F)CN6)CC5)c(C)c4)nccn23)c(F)c1F [Example 583, (4-(4-((3-(2,3-difluoro-4-methoxyphenyl)imidazo[1,2-a]pyrazin-8-yl)amino)-2-methylbenzoyl)piperazin-1-yl)((2S,4S)-4-methoxy-4-(trifluoromethyl)pyrrolidin-2-yl)methanone hydrochloride]"
12,0.164,"COc1ccc(-c2cnc3c(Nc4ccc(C(=O)N5CCC(C(=O)NC[C@H]6O[C@H](O)[C@H](N)[C@@H](O)[C@@H]6O)CC5)c(C)c4)nccn23)c(F)c1F [Example 584, N-(((2R,3S,4R,5R,6S)-5-amino-3,4,6-trihydroxytetrahydro-2H-pyran-2-yl)methyl)-1-(4-((3-(2,3-difluoro-4-methoxyphenyl)imidazo[1,2-a]pyrazin-8-yl)amino)-2-methylbenzoyl)piperidine-4-carboxamide]"

# Same assay, conditions: Acinetobacter baumannii, ATCC17961, 16 h, read-out: ATCC17961 IC90
row,SMILES,IC90 [µM]
1,"CCc1cc(Nc2nccn3c(-c4ccc(OC)c(F)c4F)cnc23)ccc1C(=O)N1CC(OCCN)C1 [Example 585, (3-(2-aminoethoxy)azetidin-1-yl)(4-((3-(2,3-difluoro-4-methoxyphenyl)imidazo[1,2-a]pyrazin-8-yl)amino)-2-ethylphenyl)methanone formate]",0.094
2,"COc1cc(Nc2nccn3c(-c4ccc(OC)c(F)c4F)cnc23)ccc1C(=O)N1CCN(C(=O)C2CCNCC2)CC1 [Example 587, (4-(4-((3-(2,3-difluoro-4-methoxyphenyl)imidazo[1,2-a]pyrazin-8-yl)amino)-2-methoxybenzoyl)piperazin-1-yl)(piperidin-4-yl)methanone formate]",0.214
3,"CCc1cc(Nc2nccn3c(-c4ccc(OC(F)F)c(F)c4F)cnc23)ccc1C(=O)N1CCN(C(=O)C2CCN(CC3CNC3)CC2)CC1 [Example 588, (1-(azetidin-3-ylmethyl)piperidin-4-yl)(4-(4-((3-(4-(difluoromethoxy)-2,3-difluorophenyl)imidazo[1,2-a]pyrazin-8-yl)amino)-2-ethylbenzoyl)piperazin-1-yl)methanone tris(2,2,2-trifluoroacetate)]",0.116
4,"CCc1cc(Nc2nccn3c(-c4ccc(OC(F)F)c(F)c4F)cnc23)ccc1C(=O)N1CCC(C(=O)NCC2CCNC2)CC1 (stereo not shown) [Example 590, 1-(4-((3-(4-(difluoromethoxy)-2,3-difluorophenyl)imidazo[1,2-a]pyrazin-8-yl)amino)-2-ethylbenzoyl)-N-(pyrrolidin-3-ylmethyl)piperidine-4-carboxamide 2,2,2-trifluoroacetate formate]",0.03
5,"CCc1cc(Nc2nccn3c(-c4ccc(OC(F)F)c(F)c4F)cnc23)ccc1C(=O)N1CCC(C(=O)N2CC3(CNC3)C2)CC1 [Example 591, (4-(2,6-diazaspiro[3.3]heptane-2-carbonyl)piperidin-1-yl)(4-((3-(4-(difluoromethoxy)-2,3-difluorophenyl)imidazo[1,2-a]pyrazin-8-yl)amino)-2-ethylphenyl)methanone 2,2,2-trifluoroacetate formate]",0.052
